The text below walks through data of patent US20070232601A1, “Vla-4 Inhibitor” (priority 2004, published 2007).

The term Ki denotes a measure of affinity in units of concentration, obtained from inhibition or displacement.

A short description of data set [1]: Dispersibility test in Japanese Pharmacopoeia First and Second Solution. The data set is classed as physicochemical. To be noted: for Dispersibility in Japanese Pharmacopoeia First Solution: JP1, pH 1.2; for Dispersibility in Japanese Pharmacopoeia Second Solution: JP2, pH 6.8. On the procedure: Dispersibility of a test substance in Japanese Pharmacopoeia First Solution (JP1, pH 1.2) and Japanese Pharmacopoeia Second Solution (JP2, pH 6.8) was evaluated.

In data set [2] the target is T1, hα4 and β1 integrins (VLA-4) (Homo sapiens, UniProt P05556+P13612).
T1 construct: expressed in transfected cells; host or cells: CHO cells
T1 sequence (P13612 34-1032): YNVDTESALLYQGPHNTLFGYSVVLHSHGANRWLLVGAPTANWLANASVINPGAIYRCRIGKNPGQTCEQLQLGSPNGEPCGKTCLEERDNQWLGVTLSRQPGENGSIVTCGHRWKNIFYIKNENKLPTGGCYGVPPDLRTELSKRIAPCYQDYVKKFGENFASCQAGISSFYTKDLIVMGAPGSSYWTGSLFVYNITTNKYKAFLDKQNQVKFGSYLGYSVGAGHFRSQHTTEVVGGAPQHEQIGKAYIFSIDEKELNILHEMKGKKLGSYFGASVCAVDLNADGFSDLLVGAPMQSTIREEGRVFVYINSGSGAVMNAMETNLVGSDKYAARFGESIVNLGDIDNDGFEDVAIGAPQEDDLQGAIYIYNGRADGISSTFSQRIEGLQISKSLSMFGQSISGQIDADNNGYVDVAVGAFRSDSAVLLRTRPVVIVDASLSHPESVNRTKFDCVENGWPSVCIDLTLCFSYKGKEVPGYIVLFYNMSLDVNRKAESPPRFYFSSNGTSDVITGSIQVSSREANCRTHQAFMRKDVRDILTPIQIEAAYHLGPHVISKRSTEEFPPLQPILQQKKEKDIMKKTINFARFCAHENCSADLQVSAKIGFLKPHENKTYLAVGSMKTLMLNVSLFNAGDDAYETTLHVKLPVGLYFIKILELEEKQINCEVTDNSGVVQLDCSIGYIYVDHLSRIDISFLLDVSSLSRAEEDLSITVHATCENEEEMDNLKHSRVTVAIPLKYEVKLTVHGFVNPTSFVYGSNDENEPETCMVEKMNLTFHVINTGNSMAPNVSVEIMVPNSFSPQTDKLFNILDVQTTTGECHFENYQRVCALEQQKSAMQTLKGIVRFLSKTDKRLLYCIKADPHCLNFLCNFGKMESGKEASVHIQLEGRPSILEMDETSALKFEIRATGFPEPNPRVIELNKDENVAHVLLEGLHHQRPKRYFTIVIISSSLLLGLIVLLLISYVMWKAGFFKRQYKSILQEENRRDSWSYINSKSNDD
T1 sequence (P05556 21-798): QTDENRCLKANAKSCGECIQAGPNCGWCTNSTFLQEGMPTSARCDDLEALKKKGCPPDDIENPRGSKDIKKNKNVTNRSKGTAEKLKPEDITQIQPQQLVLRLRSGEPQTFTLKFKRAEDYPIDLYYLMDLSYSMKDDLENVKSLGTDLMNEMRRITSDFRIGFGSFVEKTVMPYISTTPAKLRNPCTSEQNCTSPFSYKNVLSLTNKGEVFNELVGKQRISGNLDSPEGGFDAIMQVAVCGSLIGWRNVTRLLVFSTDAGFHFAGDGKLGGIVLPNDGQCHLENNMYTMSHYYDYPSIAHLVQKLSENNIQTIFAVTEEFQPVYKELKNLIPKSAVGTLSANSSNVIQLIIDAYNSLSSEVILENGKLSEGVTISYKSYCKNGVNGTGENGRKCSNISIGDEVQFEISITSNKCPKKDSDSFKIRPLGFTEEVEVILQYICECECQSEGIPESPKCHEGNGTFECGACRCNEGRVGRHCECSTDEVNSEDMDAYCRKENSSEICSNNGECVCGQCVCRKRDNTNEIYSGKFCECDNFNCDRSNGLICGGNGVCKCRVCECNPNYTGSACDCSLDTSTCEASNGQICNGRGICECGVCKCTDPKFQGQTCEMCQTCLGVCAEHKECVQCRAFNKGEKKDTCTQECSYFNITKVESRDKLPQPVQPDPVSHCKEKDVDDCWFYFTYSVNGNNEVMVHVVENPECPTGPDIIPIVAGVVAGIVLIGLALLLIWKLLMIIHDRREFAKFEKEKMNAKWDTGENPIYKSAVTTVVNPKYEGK
Briefly: In vitro evaluation: inhibition of binding of CHO cells expressing hα4 and β1 integrins to Eu3+-hVCAM-1 D1D7-IgG. The settings on record: ligand Eu3+-hVCAM-1 D1D7-IgG 2 nM, Ki calculated from IC50. Summed up:
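CHO cells stably expressing hα4β1 were cultured 2 days, then incubated 1 h at room temperature with Eu3+-hVCAM-1 D1D7-IgG (added as 2 nM solution) and compound in HEPES pH 7.5 with Ca2+, Mg2+ and 4 mM Mn2+, ± 6% human serum albumin. Bound europium was read by time-resolved fluorescence; IC50 was converted to Ki using Scatchard-derived Kd.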

Consider `Cn1cc(C(=O)Nc2cc(Cl)c(CC(=O)N3C[C@@H](N4CCC(F)(F)CC4)C[C@H]3c3ncc(CCC(=O)O)s3)cc2Cl)c2ccccc21` [Example 74, 3-[2-[1-[2,5-Dichloro-4-(1-methyl-3-indolylcarbonylamino)phenylacetyl]-(4S)-[1-(4,4-difluoro)piperidinyl]-(2S)-pyrrolidinyl]-5-thiazolyl]propionic acid], for which, in data set [1], the “Dispersibility in Japanese Pharmacopoeia First Solution” value was determined as 130 µg/mL and the “Dispersibility in Japanese Pharmacopoeia Second Solution” value amounted to 150 µg/mL. The Ki in data set [2] was 1.2 nM.

Regarding `C[C@@H]1CN([C@H]2C[C@@H](c3ncc(CCC(=O)O)s3)N(C(=O)Cc3cc(Cl)c(NC(=O)c4coc5ccccc45)cc3F)C2)C[C@H](C)O1` [Example 89], in data set [1], the “Dispersibility in Japanese Pharmacopoeia First Solution” value turned out to be 1100 µg/mL and the “Dispersibility in Japanese Pharmacopoeia Second Solution” value is 1300 µg/mL. Besides, the Ki in data set [2] was 1.3 nM. The corresponding values for `CO[C@@H]1C[C@@H](c2ncc(CCC(=O)O)s2)N(C(=O)Cc2cc(Cl)c(NC(=O)c3csc4ccccc34)cc2F)C1` [Example 25, 3-[2-[1-[4-[(3-Benzo[b]thienylcarbonyl)amino]-5-chloro-2-fluorophenylacetyl]-(4R)-methoxy-(2S)-pyrrolidinyl]-5-thiazolyl]propionic acid] are 7 µg/mL, 330 µg/mL and 0.84 nM.

On to `CC(C)O[C@H]1C[C@@H](c2ncc(CCC(=O)O)s2)N(C(=O)Cc2cc(Cl)c(NC(=O)c3cn(C)c4ccccc34)cc2F)C1` [Example 35, 3-[2-[1-[5-Chloro-2-fluoro-4-(1-methyl-3-indolylcarbonyl)aminophenylacetyl]-(4S)-isopropoxy-(2S)-pyrrolidinyl]-5-thiazolyl]propionic acid], for which the Ki in data set [2] was 3 nM.

For `CC(C)O[C@H]1C[C@@H](c2ncc(CCC(=O)O)s2)N(C(=O)Cc2cc(Cl)c(NC(=O)c3cn(C)c4ccccc34)cc2Cl)C1` [Example 34, 3-[2-[1-[2,5-Dichloro-4-(1-methyl-3-indolylcarbonylamino)phenylacetyl]-(4S)-isopropoxy-(2S)-pyrrolidinyl]-5-thiazolyl]propionic acid], the Ki in data set [2] was 5.1 nM.

Consider `CCOC[C@@H]1CC[C@@H](c2ncc(CCC(=O)O)s2)N1C(=O)Cc1cc(Cl)c(NC(=O)c2csc3ccccc23)cc1F` [Example 49, 3-[2-[1-[4-[(3-Benzo[b]thienylcarbonyl)amino]-5-chloro-2-fluorophenylacetyl]-(5S)-ethoxymethyl-(2S)-pyrrolidinyl]-5-thiazolyl]propionic acid], for which the Ki in data set [2] was 22 nM. Still for that read-out and setting: the result for `O=C(O)CCc1cnc([C@@H]2C[C@H](F)CN2C(=O)Cc2cc(Cl)c(NC(=O)c3csc4ccccc34)cc2Cl)s1` [Example 20, 3-[2-[1-[[4-[(3-Benzo[b]thienylcarbonyl)amino]-2,5-dichlorophenyl]acetyl]-(4S)-fluoro-(2S)-pyrrolidinyl]-5-thiazolyl]propionic acid] reads 0.69 nM; that for `CC(C)O[C@H]1C[C@@H](c2ncc(CCC(=O)O)s2)N(C(=O)Cc2cc(Cl)c(NC(=O)c3coc4ccccc34)cc2Cl)C1` [Example 37, 3-[2-[1-[4-[(1-Benzofuran-3-ylcarbonyl)amino]-2,5-dichlorophenylacetyl]-(4S)-isopropoxy-(2S)-pyrrolidinyl]5-thiazolyl]propionic acid], 5.9 nM. Take `Cn1cc(C(=O)Nc2cc(F)c(CC(=O)N3CCC[C@H]3c3ncc(CCC(=O)O)s3)cc2Cl)c2ccccc21` [Example 27, 3-[2-[1-[5-Chloro-2-fluoro-4-(1-methyl-3-indolylcarbonyl)aminophenylacetyl]-(2S)-pyrrolidinyl]-5-thiazolyl]propionic acid]: in data set [2], the Ki is 1.2 nM. Still for that read-out and setting: the result for `CO[C@@H]1C[C@@H](c2ncc(CCC(=O)O)s2)N(C(=O)Cc2cc(Cl)c(NC(=O)c3cn(C)c4ccccc34)cc2Cl)C1` [Example 24, 3-[2-[1-[2,5-Dichloro-4-(1-methyl-3-indolylcarbonylamino)phenylacetyl]-(4R)-methoxy-(2S)-pyrrolidinyl]-5-thiazolyl]propionic acid] reads 6.5 nM.
